Source: DBAASP
Values after ≈ are worked out from the molar mass of the structure shown.

How the values were obtained:
Assay in all cases: ≥ marks a high value that may be exact or a test limit, other limits are often not marked, values filed in µg/mL are converted to µM
Bacillus cereus = tested on: Bacillus cereus
Escherichia coli = tested on: Escherichia coli
Leuconostoc lactis = tested on: Leuconostoc lactis
Listeria innocua = tested on: Listeria innocua
Micrococcus luteus = tested on: Micrococcus luteus
Pasteurella multocida = tested on: Pasteurella multocida
Staphylococcus aureus = tested on: Staphylococcus aureus
[1] = tested on: Staphylococcus epidermidis
Streptococcus uberis = tested on: Streptococcus uberis
Escherichia coli K-12 = tested on: Escherichia coli K-12
Bacillus subtilis 168 = tested on: Bacillus subtilis 168
[2] = tested on: Pseudomonas aeruginosa PAO1
[3] = tested on: Staphylococcus aureus USA 300
[4] = tested on: Bacillus subtilis ATCC 6633
[5] = tested on: Escherichia coli ATCC 25922
[6] = tested on: Klebsiella pneumoniae ATCC 10031
[7] = tested on: Micrococcus luteus ATCC 10240
[8] = tested on: Pseudomonas aeruginosa ATCC 27853
[9] = tested on: Salmonella enterica subsp. enterica serovar Typhimurium ATCC 14028
[10] = tested on: Shigella dysenteriae ATCC 9752
[11] = tested on: Staphylococcus aureus ATCC 6538P
[12] = tested on: Staphylococcus epidermidis ATCC 12228
[13] = tested on: Candida albicans ATCC 90028
[14] = tested on: Escherichia coli ATCC 8739
[15] = tested on: Staphylococcus aureus ATCC 43300
[16] = tested on: Staphylococcus aureus ATCC 6538
[17] = tested on: Pseudomonas aeruginosa Ps4

MIC [4] [µM]	MIC [5] [µM]	MIC [6] [µM]	MIC [7] [µM]	MIC [8] [µM]	MIC [9] [µM]	MIC [10] [µM]	MIC [11] [µM]	MIC [12] [µM]	MIC [17] [µM]	SMILES	also measured
										CC[C@H](C)[C@H](NC(=O)[C@@H](NC(=O)[C@H](CO)NC(=O)[C@H](C)NC(=O)[C@@H](NC(=O)[C@H](CCCCN)NC(=O)[C@H](C)NC(=O)[C@@H](NC(=O)[C@@H](NC(=O)[C@H](CC(=O)O)NC(=O)[C@H](Cc1ccccc1)NC(=O)[C@H](CC(C)C)NC(=O)CN)C(C)C)[C@@H](C)CC)C(C)C)C(C)C)C(=O)NCC(=O)NCC(=O)N[C@@H](CC(C)C)C(N)=O [GLFDVIAKVASVIGGL]	MIC (Bacillus cereus): ≥ 64.1 µM; MIC (Escherichia coli): > 64.1 µM; MIC (Leuconostoc lactis): 16 µM (≈ 25 µg/mL); MIC (Listeria innocua): ≥ 64.1 µM; MIC (Micrococcus luteus): ≥ 64.1 µM; MIC (Pasteurella multocida): ≥ 64.1 µM; MIC (Staphylococcus aureus): 64.1 µM (≈ 99.9 µg/mL); MIC [1]: ≥ 64.1 µM; MIC (Streptococcus uberis): ≥ 64.1 µM
										CC[C@H](C)[C@H](NC(=O)[C@H](C)NC(=O)[C@H](CCC(N)=O)NC(=O)[C@@H](NC(=O)[C@@H](NC(=O)[C@H](CCCN=C(N)N)NC(=O)[C@H](CCCCN)NC(=O)[C@H](Cc1ccccc1)NC(=O)CN)[C@@H](C)CC)C(C)C)C(=O)N[C@@H](CCCCN)C(=O)N[C@@H](CC(=O)O)C(=O)N[C@@H](Cc1ccccc1)C(=O)N[C@@H](CC(C)C)C(=O)N[C@@H](CCCN=C(N)N)C(=O)N[C@@H](CC(N)=O)C(=O)N[C@@H](CC(C)C)C(=O)N[C@H](C(N)=O)C(C)C [GFKRIVQAIKDFLRNLV]	MIC (Escherichia coli K-12): ≥ 60 µM
										CC[C@H](C)[C@H](NC(=O)[C@@H](NC(=O)[C@H](CCCCN)NC(=O)CNC(=O)[C@@H](NC(=O)[C@@H](NC(=O)[C@H](CO)NC(=O)[C@@H](NC(=O)[C@@H](NC(=O)[C@@H]1CCCN1C(=O)[C@@H](NC(=O)[C@@H](NC(=O)CN)[C@@H](C)CC)[C@@H](C)CC)[C@@H](C)CC)[C@@H](C)CC)[C@@H](C)CC)[C@@H](C)CC)[C@@H](C)CC)C(N)=O [GIIPIISIIGKII]	MIC (Bacillus subtilis 168): 30 µM (≈ 40.5 µg/mL); MIC (Escherichia coli K-12): ≥ 34 µM; MIC [2]: > 30 µM; MIC [3]: ≥ 34 µM
4.1 (≈ 6.3 µg/mL)	32.5 (≈ 50 µg/mL)	≥ 32.5	2.02 (≈ 3.1 µg/mL)	16.3 (≈ 25 µg/mL)	130 (≈ 200 µg/mL)	16.3 (≈ 25 µg/mL)	8.13 (≈ 12.5 µg/mL)	8.13 (≈ 12.5 µg/mL)		CC(C)C[C@H](NC(=O)[C@H](Cc1c[nH]c2ccccc12)NC(=O)[C@H](CCCCN)NC(=O)[C@H](Cc1ccccc1)NC(=O)[C@H](CC(C)C)NC(=O)[C@H](Cc1c[nH]c2ccccc12)NC(=O)[C@H](CCCCN)NC(=O)[C@H](CC(C)C)NC(=O)[C@@H](N)Cc1ccccc1)C(=O)N[C@@H](CCCCN)C(=O)N[C@@H](CCCCN)C(N)=O [FLKWLFKWLKK]	
										CC[C@H](C)[C@H](NC(=O)[C@H](CCCCN)NC(=O)[C@@H](NC(=O)[C@H](CO)NC(=O)[C@H](CC(=O)O)NC(=O)[C@H](Cc1c[nH]c2ccccc12)NC(=O)[C@H](CC(C)C)NC(=O)CN)[C@@H](C)CC)C(=O)N[C@@H](C)C(=O)NCC(=O)N[C@@H](CCCCN)C(=O)N[C@@H](CCCCN)C(=O)N[C@@H](CC(C)C)C(=O)N[C@@H](Cc1ccccc1)C(=O)N[C@H](C(=O)N[C@@H](CC(N)=O)C(=O)N[C@H](C(=O)N[C@@H](CC(C)C)C(=O)N[C@@H](CC(=O)O)C(=O)N[C@@H](CCCCN)C(=O)N[C@H](C(=O)N[C@@H](CCCN=C(N)N)C(=O)N[C@H]1CSSC[C@@H](C(=O)O)NC(=O)CNC(=O)CNC(=O)[C@H](C)NC(=O)[C@H](C(C)C)NC(=O)[C@H](CCCCN)NC1=O)[C@@H](C)CC)C(C)C)C(C)C [GLWDSIKIAGKKLFVNVLDKIRCKVAGGC]	MIC [13]: ≥ 100 µM; MIC [14]: 12.5 µM (≈ 39.1 µg/mL); MIC [15]: 12.5 µM (≈ 39.1 µg/mL); MIC [16]: 3.1 µM (≈ 9.71 µg/mL)
									≥ 146	CC[C@H](C)[C@H](NC(=O)[C@H](CC(N)=O)NC(=O)[C@H](CCCN=C(N)N)NC(=O)[C@H](CCC(N)=O)NC(=O)[C@H](Cc1c[nH]c2ccccc12)NC(=O)[C@@H](N)Cc1ccccc1)C(=O)N[C@@H](CCCN=C(N)N)C(=O)N[C@@H](CCCCN)C(=O)N[C@H](C(=O)N[C@@H](CCCN=C(N)N)C(=O)N[C@@H](CCCN=C(N)N)C(=O)N[C@@H](CCCN=C(N)N)C(N)=O)C(C)C [FWQRNIRKVRRR]	
									≥ 159	CC[C@H](C)[C@H](NC(=O)[C@H](CCCN=C(N)N)NC(=O)[C@@H](NC(=O)[C@H](CC(N)=O)NC(=O)[C@H](CCCN=C(N)N)NC(=O)[C@H](CCC(N)=O)NC(=O)[C@H](Cc1c[nH]c2ccccc12)NC(=O)[C@H](CCC(N)=O)NC(=O)[C@@H](N)Cc1ccccc1)[C@@H](C)CC)C(=O)N[C@@H](CCCN=C(N)N)C(=O)N[C@@H](CCCN=C(N)N)C(N)=O [FQWQRNIRIRR]	
1.89 (≈ 3.1 µg/mL)	> 122	≥ 122	1.89 (≈ 3.1 µg/mL)	> 122	> 122	≥ 122	7.63 (≈ 12.5 µg/mL)	7.63 (≈ 12.5 µg/mL)		CC(C)C[C@H](NC(=O)[C@H](CC(C)C)NC(=O)[C@H](CCCCN)NC(=O)[C@H](CC(C)C)NC(=O)[C@H](CC(C)C)NC(=O)[C@H](Cc1c[nH]c2ccccc12)NC(=O)[C@H](CCCCN)NC(=O)[C@H](CC(C)C)NC(=O)[C@H](CC(C)C)NC(=O)[C@H](CCCCN)NC(=O)[C@H](CCCCN)NC(=O)[C@@H](N)CC(C)C)C(=O)N[C@@H](CCCCN)C(N)=O [LKKLLKWLLKLLK]	
3.88 (≈ 6.3 µg/mL)	> 123	≥ 123	3.88 (≈ 6.3 µg/mL)	> 123	> 123	≥ 123	15.4 (≈ 25 µg/mL)	30.8 (≈ 50 µg/mL)		CC(C)C[C@H](NC(=O)[C@H](CC(C)C)NC(=O)[C@H](CCCCN)NC(=O)[C@H](CC(C)C)NC(=O)[C@H](CC(C)C)NC(=O)[C@H](Cc1c[nH]c2ccccc12)NC(=O)[C@H](CCCCN)NC(=O)[C@H](CC(C)C)NC(=O)[C@H](CC(C)C)NC(=O)[C@H](CCCCN)NC(=O)[C@H](CC(C)C)NC(=O)[C@@H](N)CC(C)C)C(=O)N[C@@H](CCCCN)C(N)=O [LLKLLKWLLKLLK]	
									≥ 160	CC[C@H](C)[C@H](NC(=O)[C@H](CC(N)=O)NC(=O)[C@H](CCCN=C(N)N)NC(=O)[C@H](CCC(N)=O)NC(=O)[C@H](Cc1c[nH]c2ccccc12)NC(=O)[C@@H](N)Cc1ccccc1)C(=O)N[C@@H](CCCN=C(N)N)C(=O)N[C@@H](CCCCN)C(=O)N[C@H](C(=O)N[C@@H](CCCN=C(N)N)C(=O)N[C@@H](CCCN=C(N)N)C(N)=O)C(C)C [FWQRNIRKVRR]	
									≥ 169	CC(C)[C@H](NC(=O)[C@H](CCCCN)NC(=O)[C@H](CCCN=C(N)N)NC(=O)[C@H](Cc1c[nH]c2ccccc12)NC(=O)[C@H](CC(N)=O)NC(=O)[C@H](CCCN=C(N)N)NC(=O)[C@H](CCC(N)=O)NC(=O)[C@H](Cc1c[nH]c2ccccc12)NC(=O)[C@@H](N)Cc1ccccc1)C(=O)N[C@@H](CCCN=C(N)N)C(N)=O [FWQRNWRKVR]	
									≥ 177	CC[C@H](C)[C@H](NC(=O)[C@H](CC(N)=O)NC(=O)[C@H](CCCN=C(N)N)NC(=O)[C@H](CCC(N)=O)NC(=O)[C@H](Cc1c[nH]c2ccccc12)NC(=O)[C@@H](N)Cc1ccccc1)C(=O)N[C@@H](Cc1ccc(O)cc1)C(=O)N[C@@H](CCCCN)C(=O)N[C@H](C(=O)N[C@@H](CCCN=C(N)N)C(N)=O)C(C)C [FWQRNIYKVR]	
1.92 (≈ 3.1 µg/mL)	> 124	≥ 124	1.92 (≈ 3.1 µg/mL)	> 124	> 124	≥ 124	3.91 (≈ 6.3 µg/mL)	1.92 (≈ 3.1 µg/mL)		CC(C)C[C@H](NC(=O)[C@H](Cc1c[nH]c2ccccc12)NC(=O)[C@H](Cc1c[nH]c2ccccc12)NC(=O)[C@H](CC(C)C)NC(=O)[C@@H](N)Cc1ccccc1)C(=O)N[C@@H](Cc1ccccc1)C(=O)N[C@@H](CCCCN)C(=O)N[C@@H](Cc1c[nH]c2ccccc12)C(=O)N[C@@H](C)C(=O)N[C@@H](Cc1c[nH]c2ccccc12)C(=O)N[C@@H](CCCCN)C(N)=O [FLWWLFKWAWK]	
